Patent US11220522B2, “Cytotoxic platinum complex, its preparation and therapeutic use” (City University of Hong Kong, priority 2016, dated 2022)
Blank lines part the entries; values can stand above or below the compound they belong to.

What was measured:
[1] = system: Human ovarian carcinoma A2780 cells
Protocol: (§1) Human ovarian carcinoma A2780 and cisplatin-resistant A2780cisR cells were cultured in RPMI 1640 with 10% FBS and 100 units penicillin/streptomycin. Human breast adenocarcinoma MCF-7, human colorectal carcinoma HCT116, human lung carcinoma A549, and cisplatin-resistant A549cisR cells were cultured in DMEM containing 10% FBS and 100 units penicillin/streptomycin. Human fetal lung fibroblast MRC-5 cells were cultured in MEM with 10% FBS, 1% L-glutamine, 1% non-essential amino acids, and 1% sodium pyruvate. […] All cells were incubated at 37° C. in 5% CO2.
(§2) For each of these assays, cells were seeded in 96-well plates at a certain density. For instance, A2780 cells were seeded in a 96-well plate at the density of 1,500 cells per well and incubated till the confluence reached about 30%. Cells were then treated with medium containing varying concentrations of compounds for 72 h at 37° C. in 5% CO2. […] For MTT assay, after incubation for 72 h, the medium containing compounds was replaced by FBS-free medium with 1 mg/mL MTT for 4 h incubation. DMSO was added to each well when the medium containing MTT was removed after incubation. The absorbance was measured at 570 and 630 nm. Cells incubated with medium containing 1% DMF only were used as controls. […] The absorbance was tested at 570 and 630 nm. […]

[2] = system: cisplatin-resistant A2780cisR cells
Protocol: as §1
(§3) For each of these assays, cells were seeded in 96-well plates at a certain density. For instance, A2780 cells were seeded in a 96-well plate at the density of 1,500 cells per well and incubated till the confluence reached about 30%. Cells were then treated with medium containing varying concentrations of compounds for 72 h at 37° C. in 5% CO2. […] For MTT assay, after incubation for 72 h, the medium containing compounds was replaced by FBS-free medium with 1 mg/mL MTT for 4 h incubation. DMSO was added to each well when the medium containing MTT was removed after incubation. The absorbance was measured at 570 and 630 nm. Cells incubated with medium containing 1% DMF only were used as controls. The seeded cell density for A549, MCF-7 and HCT116 was 1,500 cells/well, and for A2780cisR, A549cisR, and MRC-5 was 2,500 cells were seeded to each well. The absorbance was tested at 570 and 630 nm.
(§4) Values are the average of the 96-wells for each tested compound, and the reported errors are the corresponding standard deviations.

[3] = system: Human breast adenocarcinoma MCF-7 cells
Protocol: Human breast adenocarcinoma MCF-7, human colorectal carcinoma HCT116, human lung carcinoma A549, and cisplatin-resistant A549cisR cells were cultured in DMEM containing 10% FBS and 100 units penicillin/streptomycin. […] All cells were incubated at 37° C. in 5% CO2.
as §3, §4

[4] = system: Human fetal lung fibroblast MRC-5 cells
Protocol: as §1, §3, §4

[5] = system: cisplatin-resistant A549cisR cells
Protocol: as §1, §3, §4

[6] = system: human lung carcinoma A549 cells
Protocol: as §1, §2

[7] = MTT cytotoxicity assay, MRC-5 normal cells; conditions: human, MRC-5 fetal lung fibroblast cells (normal cells)
Protocol: as §1, §3, §4

[8] = system: cisplatin-resistant A2780cisR cells; assay: MTT cytotoxicity assay, A2780cisR cells
Protocol: as §1, §3, §4

[9] = system: human colorectal carcinoma HCT116 cells; assay: MTT cytotoxicity assay, HCT116 cells; type: cell-based; conditions: maximum over the cells tested (HCT116)
Protocol: The absorbance was measured at 570 and 630 nm. […].

[10] = system: cisplatin-resistant A549cisR cells; assay: MTT cytotoxicity assay, A549cisR cells
Protocol: as §1, §3, §4

IC50 [1]: > 35 µM
IC50 [2]: > 35 µM
IC50 [3]: > 50 µM
IC50 [4]: 65.1 ± 9 µM
IC50 [5]: > 40 µM
IC50 [6]: > 40 µM
Compound: Chalcone

Compound: [NH2][Pt]([NH2])([Cl])([Cl])([O]C(=O)COc1ccc(/C=C/C(=O)c2ccc(Cl)c(Cl)c2)cc1)[O]C(=O)COc1ccc(/C=C/C(=O)c2ccc(Cl)c(Cl)c2)cc1 [chalcoplatin]
IC50 at 72 h [7]: 9 ± 0.4 µM

Compound: [NH2][Pt]([NH2])([OH])([Cl])([Cl])[O]C(=O)COc1ccc(/C=C/C(=O)c2ccc(Cl)c(Cl)c2)cc1 [monochalcoPt(IV)]
IC50 (cytotoxicity, MTT assay) ([8]; A2780cisR cells, 72 h drug treatment): nanomolar
IC50 at 72 h [7]: 0.11 ± 0.03 µM
fold increase in cytotoxicity compared with cisplatin [9]: ≤ 422 fold
IC50 (cytotoxicity, MTT assay) ([10]; A549cisR cells, 72 h drug treatment): nanomolar

Compound: N.N.[Cl][Pt][Cl] [cDDP, cis-diamminedichloroplatinum]
RF (Resistant Factor) ([8]; IC50 in A2780CisR/IC50 in A2780 cells): 16
RF (Resistant Factor) ([10]; IC50 in A549cisR/IC50 in A549 cells): 4.3
